Results published in PMC11318023, “Discovery of VU6008677: A Structurally Distinct Tricyclic M4 Positive Allosteric Modulator with Improved CYP450 Profile” (ACS Medicinal Chemistry Letters, 2024).
pEC50: −log10 of the molar value. Like-named read-outs stand apart in the source and are kept apart here.

Molecular target: T1, human M4 (hM4) (Homo sapiens, UniProt P08173)
T1 sequence (P08173 1-479): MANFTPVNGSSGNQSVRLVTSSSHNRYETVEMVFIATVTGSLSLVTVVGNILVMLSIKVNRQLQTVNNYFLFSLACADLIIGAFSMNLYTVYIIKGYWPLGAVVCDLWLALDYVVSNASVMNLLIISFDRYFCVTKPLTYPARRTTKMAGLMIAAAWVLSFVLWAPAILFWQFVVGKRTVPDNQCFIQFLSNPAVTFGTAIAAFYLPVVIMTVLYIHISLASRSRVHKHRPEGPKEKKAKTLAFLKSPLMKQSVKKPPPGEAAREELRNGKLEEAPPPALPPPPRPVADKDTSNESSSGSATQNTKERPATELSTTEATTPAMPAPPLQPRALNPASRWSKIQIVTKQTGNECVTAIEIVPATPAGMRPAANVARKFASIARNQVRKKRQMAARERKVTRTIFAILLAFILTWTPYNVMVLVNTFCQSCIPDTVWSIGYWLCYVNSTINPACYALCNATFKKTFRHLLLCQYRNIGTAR
Assay: Calcium mobilization assay, hM4/Gqi5-CHO cells, with EC20 acetylcholine (PAM)
Details: for hM4 pEC50 / hM4 %ACh Max / pEC50: calcium mobilization; for hM4 %ACh Max: maximum response; for pEC50: EC20 fixed concentration of acetylcholine

[1] = hM4/Gqi5-CHO cells, EC20 acetylcholine
[2] = read-out: hM4 EC50, hM4/Gqi5-CHO cells

Cc1nc2oc3c(NCc4ccc(C(C)(C)O)cc4)ncnc3c2c(C)c1Cl [Compound 14c]
hM4 pEC50 [1]: 5.93
hM4 %ACh Max [1]: 62%
pEC50 [2]: 5.92

Cc1c(Cl)cnc2sc3c(NCc4ccncc4)ncnc3c12 [Compound 15d]
hM4 pEC50 [1]: 6.50
hM4 %ACh Max [1]: 84%
pEC50 [2]: 6.49

Cc1c(Cl)cnc2sc3c(NC4(C)CC4)ncnc3c12 [Compound 15b]
hM4 pEC50 [1]: 6.39
hM4 %ACh Max [1]: 51%
pEC50 [2]: 6.40

COc1ccc(CNc2ncnc3c2oc2nc(C)c(Cl)c(C)c23)cc1F.Cl [Compound 14a]
hM4 pEC50 [1]: <5.00
hM4 %ACh Max [1]: 49%
pEC50 [2]: < 5.00

Cc1nc2oc3c(N(C)C)ncnc3c2c(C)c1Cl.Cl [Compound 14e]
hM4 pEC50 [1]: 5.86
pEC50 [2]: 5.85

Cc1nc2sc3c(NCC4CCC4)nncc3c2c(C)c1Cl.Cl [Compound 22f]
hM4 pEC50 [1]: 6.40
fold loss (decrease) in hM4 potency (relative to the comparator analogue (13g, 13k vs 13l; 22f vs 22j)): ~5 fold

Cc1c(Cl)cnc2sc3c(N4CCCC4)ncnc3c12 [Compound 15a]
hM4 pEC50 [1]: 5.22
hM4 %ACh Max [1]: 45%
pEC50 [2]: 5.22

Cc1ncc(CNc2ncnc3c2sc2ncc(Cl)c(C)c23)cn1.Cl [Compound 15c]
hM4 pEC50 [1]: 6.34
hM4 %ACh Max [1]: 71%
pEC50 [2]: 6.35

Cc1ncc(CNc2ncnc3c2sc2nc(C)c(Cl)c(C)c23)cn1.Cl [Compound 13b]
hM4 pEC50 [1]: < 5.00
hM4 %ACh Max [1]: 75%
pEC50 [2]: < 5.00

COCCCNc1nncc2c1sc1nc(C)c(Cl)c(C)c12.Cl [Compound 22g]
hM4 pEC50 [1]: 6.72
hM4 %ACh Max [1]: 67%
pEC50 [2]: 6.72

Cc1nc2sc3c(N4CC5(COC5)C4)ncnc3c2c(C)c1Cl.Cl [Compound 13d]
hM4 pEC50 [1]: <5.00
hM4 %ACh Max [1]: 71%
EC50 (read-out: hM4 EC50, as quoted in text in μM, hM4/Gqi5-CHO cells, EC20 acetylcholine): > 10 µM
pEC50 [2]: < 5.00

Cc1nc2sc3c(N4CC5CC5C4)nncc3c2c(C)c1Cl.Cl (stereo not shown) [Compound 22c]
hM4 pEC50 [1]: 6.29
hM4 %ACh Max [1]: 73%
pEC50 [2]: 6.29

COc1ccc(CNc2nncc3c2sc2nc(C)c(Cl)c(C)c23)cc1F [Compound 22a]
hM4 pEC50 [1]: 5.88
hM4 %ACh Max [1]: 69%
pEC50 [2]: 5.89

Cc1nc2sc3c(NC4CC(c5ccncc5)C4)ncnc3c2c(C)c1Cl.Cl (stereo not shown) [Compound 13h]
hM4 pEC50 [1]: 5.82
hM4 %ACh Max [1]: 84%
pEC50 [2]: 5.82

Cc1nc2sc3c(NCc4ccc(OC(F)F)cc4)nncc3c2c(C)c1Cl [Compound 22e]
hM4 pEC50 [1]: 6.27
hM4 %ACh Max [1]: 41%
